Data taken from patent publication US20180303901A1, “Notch1 Decoy Antagonists Protect From Obesity-Induced Insulin Resistance and Fatty Liver” (The Trustees of Columbia University in the City of New York, priority 2013, published 2018).
“Also recorded” adds a separate entry of the source. Peptide text beside a SMILES is read from it. * marks the point of attachment. Cbz = O=C(OCc1ccccc1)*

Assays:
N1-IC-transduced mice = test: Rapamycin treatment of Fc or N1-IC-transduced mice; assay type: in vivo, mouse; conditions: data not shown
Procedure: FIG. 9A-FIG. 9F: mTor inhibition prevents Notch-induced fatty liver. Data shown means±SEM. FIG. 9A: Fasn-luciferase in FAO hepatoma cells transfected with either Raptor or scrambled (scr) shRNA, transduced with either Fc (−) or N1-IC (Notch) adenovirus and treated for 16-h with 100 nM insulin. ***p<0.001 vs. Fc control, &p<0.001 vs. scrambled shRNA, #p<0.001 vs. no insulin. […]
Blood glucose was measured by glucose meter (OneTouch) and plasma insulin by ELISA (Millipore). […] Hepatic de novo lipogenesis was determined by measuring the amount of newly synthesized FA, as resolved by TLC, present in the liver 1 h after intraperitoneal injection of 1 mCi of 3H2O (Zhang 2006). Triglyceride secretion rate was measured after injection of Poloxamer 407, with serial measurement of plasma triglycerides (Li 2011).
(§1) Notch1-IC, Notch decoy (1-24), Fc and GFP adenoviruses have been described (Kitamura 2007; Funahashi 2011; Nakae 2003). We transduced primary hepatocytes or HEK 293 ceils at MOI 5 and FAO hepatoma cells at MOI 200, to achieve 90-100% infection efficiency as assessed by GFP expression. […]

FAO hepatoma cells = test: Western blots / gene expression in FAO hepatoma cells transduced with Fc or N1-IC; assay type: cell-based; conditions: MG132 for 4-h
Description: FIG. 8A-FIG. 8F: Activation of hepatic Notch increases mTor, lipogenic genes, and steatosis in chow-fed mice. *p<0.05, **p<0.01, ***p<0.001 vs. Fc or GFP. Protein expression normalized to either Actin or Tubulin. Mice were 8-week-old C57Bl/6 males, unless otherwise indicated. […] FIG. 8D: Liver Western blots in mice transduced with GFP or N1-IC adenovirus, sacrificed after a 16-h fast followed by 2-h refeeding. (n=6/group). FIG. 8E: Gene expression analysis in mice transduced with GFP or N1-IC adenovirus, sacrificed after a 16-h fast followed by 2-h refeeding. (n=6/group). FIG. 8F: De novo lipogenesis in hepatocytes after transduction with GFP or N1-IC adenovirus and incubation with 10 nM insulin (triplicate wells, representative of 2 individual experiments). FIG. 8G: Hepatic triglyceride content 7-d after GFP or N1-IC transduction in 16-h fasted, 24-week-old, chow-fed Cre- and L-Rbpj mice. […] FIG. 8K-FIG. 8M: Quantitation of the phospho/total mTor, 4E-BP1 and S6k levels from the experiments in FIG. 8J. […]
as §1

primary hepatocytes = test: Western blots of primary hepatocytes transfected with Raptor cDNA, transduced with Fc or Notch1, cycloheximide; assay type: cell-based, mouse; conditions: cycloheximide for 2-h
Procedure: FIG. 11A-FIG. 11H: Notch induces mTorc1 complex stability. FIG. 11A: Western blots of liver proteins from 5h-fasted L-Rbpj and control mice (mTor and Actin blots reproduced from FIG. 2n), FIG. 11B: Western blot of liver protein from chow-fed, 12-week-old mice transduced with Fc or N1-IC, sacrificed at day 7, after overnight fasting. FIG. 11C: Western blots from FAO hepatoma cells transduced with either Fc or N1-IC, with or without treatment with MG132 for 4-h. FIG. 11D: Western blots of primary hepatocytes, transfected with Raptor cDNA, then transduced with Fc or Notch1 and treated for 2-h with cycloheximide. […]
We isolated and cultured primary mouse hepatocytes as described (Pajvani 2011). […] We measured fatty acid oxidation as described (Li 2011), with the following modifications: primary hepatocytes were incubated serum-free medium with 1.5% fatty-acid free BSA (Sigma) containing 0.1 mM cold oleic acid and 1 μCi 14C-oleic acid (PerkinElmer Life Sciences) for 4 h. […] Trapped 14CO2 on the alkalinized filter paper was measured as described (Li 2011). We measured lipogenesis as described (Yecies 2011), with the following modifications: hepatocytes were stimulated with 10 nM insulin in serum-free DMEM for 2 h, then labeled with 14C-acetate (PerkinElmer Life Sciences) for 2 h. […]

Q: How did the “effect of rapamycin on glucose tolerance” value (N1-IC-transduced mice) turn out when `CO[C@H]1C[C@@H]2CC[C@@H](C)[C@@](O)(O2)C(=O)C(=O)N2CCCC[C@H]2C(=O)O[C@H]([C@H](C)C[C@@H]2CC[C@@H](O)[C@H](OC)C2)CC(=O)[C@H](C)/C=C(\C)[C@@H](O)[C@@H](OC)C(=O)[C@H](C)C[C@H](C)/C=C/C=C/C=C/1C` [rapamycin] was run?
A: Its value is “mild glucose intolerance”.

Q: `CC(C)C[C@@H](C=O)NC(=O)[C@H](CC(C)C)NC(=O)[C@H](CC(C)C)NC(=O)OCc1ccccc1` [MG132] (Cbz-Leu-Leu-Leu-aldehyde) was tested. Which “effect of N1-IC on Raptor protein under proteosomal inhibition” value (FAO hepatoma cells) did it give?
A: The value was “independent”.

Q: For `C[C@@H]1C[C@@H]([C@H](O)CC2CC(=O)NC(=O)C2)C(=O)[C@@H](C)C1` [cycloheximide], which “effect of N1-IC on Raptor protein under protein synthesis inhibition” value (primary hepatocytes) is on record?
A: The value was “fully reversed; also recorded: prevents”.
